Measured values: patent publication US12195427B2, “MASP-2 inhibitors and methods of use” (priority 2018, dated 2025)
pKi: −log10 of the molar value.

Legend:
MASP-2 (CCP1-CCP2-SP) = MASP-2 (CCP1-CCP2-SP) (Homo sapiens (Human), UniProt O00187); test: Enzymatic Assay for MASP-2 (fluorogenic substrate); format: biochemical
human α-thrombin = human α-thrombin (Homo sapiens (Human), UniProt P00734); test: Enzymatic Assay for Thrombin (Boc-VPR-AMC); format: biochemical
MASP-2 CCP2-SP = MASP-2 CCP2-SP (Homo sapiens (Human), UniProt O00187); test: MASP-2 co-crystallization, X-ray crystallography and structure analysis (H-bonds, van der Waals contacts); set-up: van der Waals contact distance, MASP-2 HIS 483 atom CD2 / van der Waals contact distance, MASP-2 HIS 483 atom NE2 / van der Waals contact distance, SER 654 C to compound atom / van der Waals contact distance, SER 654 O to compound atom / van der Waals contact distance, TRP 655 C to compound atom / van der Waals contact distance, MASP-2 GLY 528 atom CA / van der Waals contact distance TRP 655 atom CZ3 / van der Waals contact distance TRP 655 atom N / van der Waals contact distance TRP 655 atom CE3 / van der Waals contact distance GLY 656 atom C / van der Waals contact distance GLY 656 atom CA / van der Waals contact distance GLY 656 atom O / van der Waals contact distance, MASP-2 TYR 607 atom CD1 / van der Waals contact distance, MASP-2 PRO 606 atom O / d(C3,CA1) / d(CA1,N1)2 / d(H4,O1) / d(H4,O2) / d(O1,O2) / d(CA1,O2) / d(CA6,O1) / d(CA6,O2) / d(CA1,C5) / d(O2,H3) / d(N2,C2) / d(CA5,N2) / d(N2,C4) / d(N2,C6) / d(N2,CA3) / d(N2,O3) / d(O4,H2): unit not given beside the values;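 for Ligand-pharmacophore element distance, pharmacophore element C2: distance from averaged pharmacophore element to bound ligand; missing value means element absent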;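 for Ligand-pharmacophore element distance, pharmacophore element C3: distance from averaged pharmacophore element to bound ligand; missing value means element absent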;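 for Ligand-pharmacophore element distance, pharmacophore element C4: distance from averaged pharmacophore element to bound ligand; missing value means element absent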;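 for Ligand-pharmacophore element distance, pharmacophore element C5: distance from averaged pharmacophore element to bound ligand; missing value means element absent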
Outline: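 Soaked crystals of recombinant CCP2-SP (E. coli) yield the structures, phased by molecular replacement on 1Q3X pieces. Hydrophobic or nonbonded contacts can also cover atom pairs that are potential hydrogen bonds.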

[1] = Table A5-1 pharmacophore: distance between elements, S2/S1 region
[2] = Table A5-2 pharmacophore distance, S3/S4 region
[3] = Table A7-1, between pharmacophore elements of the bound compound
[4] = Table A8-6, nearest protein atom in cell to the left

Chain of MASP-2 CCP2-SP (O00187 445-686): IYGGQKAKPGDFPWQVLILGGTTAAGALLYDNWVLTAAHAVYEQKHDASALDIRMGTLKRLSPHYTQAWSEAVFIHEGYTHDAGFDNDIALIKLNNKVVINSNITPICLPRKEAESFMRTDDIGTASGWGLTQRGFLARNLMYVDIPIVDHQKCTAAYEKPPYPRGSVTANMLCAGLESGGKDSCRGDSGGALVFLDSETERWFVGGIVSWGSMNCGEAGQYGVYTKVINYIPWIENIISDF
Chain of MASP-2 CCP2-SP (O00187 364-432 partner): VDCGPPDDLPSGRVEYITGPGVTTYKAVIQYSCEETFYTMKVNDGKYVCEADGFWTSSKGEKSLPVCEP
Chain of MASP-2 (CCP1-CCP2-SP) (O00187 445-686): as the sequence (O00187 445-686) above

C[C@H](NC(=O)[C@H](N)CCc1ccccc1)C(=O)NCc1ccc(C(=N)N)cc1 [compound 1024]
pKi (MASP-2 (CCP1-CCP2-SP)): > 6.30 | pKi (human α-thrombin): > 6.30 | H-bond distance to MASP-2 ASP 627 atom OD1 (MASP-2 CCP2-SP; Table A1 (H-Bonds), ASP 627 OD1): 2.74 | H-bond distance to MASP-2 GLY 656 atom N (MASP-2 CCP2-SP; Table A1 (H-Bonds), GLY 656 N): 3.06 | H-bond distance to MASP-2 SER 628 atom O (MASP-2 CCP2-SP; Table A1 (H-Bonds), SER 628 O): 2.79 | H-bond distance to MASP-2 SER 654 atom O (MASP-2 CCP2-SP; Table A1 (H-Bonds), SER 654 O): 2.86 | H-bond distance to MASP-2 SER 657 atom O (MASP-2 CCP2-SP; Table A1 (H-Bonds), SER 657 O): 2.94 | van der Waals contact distance, MASP-2 HIS 483 atom CD2 (MASP-2 CCP2-SP; Table A2-1): 3.39 | van der Waals contact distance, MASP-2 TYR 607 atom CD1 (MASP-2 CCP2-SP; Table A2-4): 3.9 | van der Waals contact distance, MASP-2 amino acid atom to compound atom (MASP-2 CCP2-SP; Table A2-7 continued: CYS 629 (CA)): 3.75 | van der Waals contact distance GLY 656 atom C (MASP-2 CCP2-SP; Table A2-13, MASP-2 GLY 656 C): 3.53 | van der Waals contact distance TRP 655 atom CZ3 (MASP-2 CCP2-SP; Table A2-13, MASP-2 TRP 655 CZ3): 3.86 | van der Waals contact distance TRP 655 atom N (MASP-2 CCP2-SP; Table A2-13, MASP-2 TRP 655 N): 3.78 | van der Waals contact distance TRP 655 atom O (MASP-2 CCP2-SP; Table A2-13, MASP-2 TRP 655 O): 3.59 | van der Waals contact distance SER 657 atom C (MASP-2 CCP2-SP; Table A2-14, MASP-2 SER 657 C, columns c12-c13 (inferred)): 3.77 | Ligand-pharmacophore element distance, pharmacophore element C2 (MASP-2 CCP2-SP; Table A4-1, element C2): 0 | Ligand-pharmacophore element distance, pharmacophore element C3 (MASP-2 CCP2-SP; Table A4-1, element C3): 0 | Ligand-pharmacophore element distance, pharmacophore element C4 (MASP-2 CCP2-SP; Table A4-1, element C4): 0 | Ligand-pharmacophore element distance, pharmacophore element C5 (MASP-2 CCP2-SP; Table A4-1, element C5): 0 | Ligand-pharmacophore element distance, pharmacophore element C6 (MASP-2 CCP2-SP; Table A4-1, element C6): 0 | Ligand-pharmacophore element distance, pharmacophore element C7 (MASP-2 CCP2-SP; Table A4-1, element C7): 0 | Ligand-pharmacophore element distance, pharmacophore element CA1 (MASP-2 CCP2-SP; Table A4-1, element CA1): 0.4 | Ligand-pharmacophore element distance, pharmacophore element CA2 (MASP-2 CCP2-SP; Table A4-1, element CA2): 0.33 | Ligand-pharmacophore element distance, pharmacophore element CA3 (MASP-2 CCP2-SP; Table A4-1, element CA3): 0 | Ligand-pharmacophore element distance, pharmacophore element CA4 (MASP-2 CCP2-SP; Table A4-1, element CA4): 0 | Ligand-pharmacophore element distance, pharmacophore element CA5 (MASP-2 CCP2-SP; Table A4-1, element CA5): 0 | Ligand-pharmacophore element distance, pharmacophore element CA6 (MASP-2 CCP2-SP; Table A4-1, element CA6): 0 | Ligand-pharmacophore element distance, pharmacophore element H1 (MASP-2 CCP2-SP; Table A4-2, element H1): 0 | Ligand-pharmacophore element distance, pharmacophore element H2 (MASP-2 CCP2-SP; Table A4-2, element H2): 0 | Ligand-pharmacophore element distance, pharmacophore element H3 (MASP-2 CCP2-SP; Table A4-2, element H3): 4.93 | Ligand-pharmacophore element distance, pharmacophore element H4 (MASP-2 CCP2-SP; Table A4-2, element H4): 3.21 | Ligand-pharmacophore element distance, pharmacophore element N1 (MASP-2 CCP2-SP; Table A4-2, element N1): 1.74 | Ligand-pharmacophore element distance, pharmacophore element N2 (MASP-2 CCP2-SP; Table A4-2, element N2): 0.59 | Ligand-pharmacophore element distance, pharmacophore element O1 (MASP-2 CCP2-SP; Table A4-2, element O1): 0.4 | Ligand-pharmacophore element distance, pharmacophore element O2 (MASP-2 CCP2-SP; Table A4-2, element O2): 0.4 | Ligand-pharmacophore element distance, pharmacophore element O3 (MASP-2 CCP2-SP; Table A4-2, element O3): 0 | Ligand-pharmacophore element distance, pharmacophore element O4 (MASP-2 CCP2-SP; Table A4-2, element O4): 0 | d(CA1,N1) (MASP-2 CCP2-SP; [1]): 3.55 | d(CA1,O1) (MASP-2 CCP2-SP; [1]): 4.37 | d(CA1,O2) (MASP-2 CCP2-SP; [1]): 4.23 | d(H4,O1) (MASP-2 CCP2-SP; [1]): 3.99 | d(H4,O2) (MASP-2 CCP2-SP; [1]): 3.27 | d(O1,O2) (MASP-2 CCP2-SP; [1]): 3.23 | d(N2,CA2) (MASP-2 CCP2-SP; [2]): 6.19 | d(O2,H3) (MASP-2 CCP2-SP; [2]): 5.45 | d(O2,N2) (MASP-2 CCP2-SP; [2]): 2.78 | a(CA1, O1, O2) (MASP-2 CCP2-SP; Table A6-1 pharmacophore angle): 109.78 | a(O1, O2, H4) (MASP-2 CCP2-SP; Table A6-1 pharmacophore angle): 128.26 | A(N1, CA1, O1) a) (MASP-2 CCP2-SP; Table A6-1 pharmacophore angle, all compounds with protonatable center N1 except Methyl-amino-pyridine): 163.32 | a(O1, O2, H3) (MASP-2 CCP2-SP; Table A6-2 pharmacophore angle): 151.79 | a(O1, O2, N2) (MASP-2 CCP2-SP; Table A6-2 pharmacophore angle): 136.56 | a(O2, N2, CA2) (MASP-2 CCP2-SP; Table A6-2 pharmacophore angle): 154.55 | Pharmacophore torsion angle a(H4, O1, O2, H3) (MASP-2 CCP2-SP; [3]): 44.69 | Pharmacophore torsion angle a(H4, O1, O2, N2) (MASP-2 CCP2-SP; [3]): 125.09 | Pharmacophore torsion angle a(N1, CA1, O2, H4) (MASP-2 CCP2-SP; [3]): −97.21 | Pharmacophore torsion angle a(O1, H4, O2, CA1) (MASP-2 CCP2-SP; [3]): −63.40 | Pharmacophore torsion angle a(O1, O2, N2, CA2) (MASP-2 CCP2-SP; Table A7-2, between pharmacophore elements of the bound compound): 139.71 | Pharmacophore protein distance to MET_658 (first MET_658 column) (MASP-2 CCP2-SP; Table A8-6, 6th residue column, nearest protein atom in cell to the left): 1.94 | Pharmacophore protein distance to MET_658 (second MET_658 column) (MASP-2 CCP2-SP; Table A8-6, 9th residue column, nearest protein atom in cell to the left): 3.26 | Pharmacophore protein distance to GLY_528 (MASP-2 CCP2-SP; [4]): 3.60 | Pharmacophore protein distance to PHE_529 (MASP-2 CCP2-SP; [4]): 3.20 | Pharmacophore protein distance to PRO_608 (MASP-2 CCP2-SP; [4]): 3.95 | Pharmacophore protein distance to SER_611 (MASP-2 CCP2-SP; [4]): 2.54 | Pharmacophore protein distance to TRP_655 (MASP-2 CCP2-SP; Table A8-6, pharmacophore elements C6, CA3, O3, H1, nearest protein atom in cell to the left): 3.53

Cc1ccc(-c2c[nH]c(C(=O)N[C@@H](C)C(=O)NCc3ccc(C(=N)N)cc3)c2)cc1F [compound 1235, (S)—N-(1-((4-Carbamimidoylbenzyl)amino)-1-oxopropan-2-yl)-4-(3-fluoro-4-methylphenyl)-1H-pyrrole-2-carboxamide]
pKi (human α-thrombin): 4.60 to 5.00
